Data: the supplement of paper PMC11208160

Test: recombinant UMI read abundance after kanamycin selection (control-corrected) (log10(CPM+1)); higher = more efficient recombination; extreme values may be limits of the assay; sequences stand for … in AGTGCAGAGAAAATCGGCCAGTTTTCTCTGCCTGCAGTCCGCATGCCGTGGGACCCCTTGGGTTCTAACCTGTTGCCTAGATTTATGCAGCGGACTGCCTTTCTCCCAAAGTGATAAACCGG…AGGTTGGTTTCACT; site = the 11-nt donor
Outline: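 In Escherichia coli, a pool of donor and donor-binding-loop pairs, each with a 12-nt UMI, was tested for the IS621 bridge recombinase. Plating was on IPTG (0.07 mM) plus kanamycin, or without selection, in two replicates. Recombinant UMIs were amplified by PCR across the donor–target junction and sequenced, and counts were reported as log10(CPM+1) after averaging and control-derived scaling.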
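Further: IS621 bridge recombinase in Escherichia coli cells against a fixed T5 target plasmid.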

Row | Sequence | recombinant UMI read abundance (log10)
1 | CGTCGAACATGGACCGGTTTTCCCGGTAATCCGTATTTGTT (site CGTTGAACTAA) | 0.00437
2 | CGTCTATCATGGACCGGTTTTCCCGGTAATCCGTATTTGAT (site CGTCTATCTAT) | 0
3 | CGTCTCTCATGGACCGGTTTTCCCGGTAATCCGTATTTGGG (site CGTCTCTCTCC) | 0.0222
4 | CGTCTCTCATGGACCGGTTTTCCCGGTAATCCGTATTTGTA (site CATCTCTCTTA) | 1.13
5 | CGTCTCTCATGGACCGGTTTTCCCGGTAATCCGTATTTGTA (site CCTCTCTCTTA) | 1.04
6 | CGTCTCTCATGGACCGGTTTTCCCGGTAATCCGTATTTGTA (site CGTCTCTCTTA) | 2.64
7 | CGTCTCTCATGGACCGGTTTTCCCGGTAATCCGTATTTGTA (site CTTCTCTCTTA) | 1.33
8 | CGTCTGTCATGGACCGGTTTTCCCGGTAATCCGTATTTGAC (site CGTCTGTCTGT) | 0
9 | CGTGCAACATGGACCGGTTTTCCCGGTAATCCGTATTTGTT (site CGTGAAACTAA) | 0
10 | CGTGCAACATGGACCGGTTTTCCCGGTAATCCGTATTTGTT (site CGTGCAACTAA) | 0.0114
11 | CGTGCAACATGGACCGGTTTTCCCGGTAATCCGTATTTGTT (site CGTGGAACTAA) | 0.018
12 | CGTGCAACATGGACCGGTTTTCCCGGTAATCCGTATTTGTT (site CGTGTAACTAA) | 0.00375
13 | CGTGGAACATGGACCGGTTTTCCCGGTAATCCGTATTTGAT (site CGTGGAACTAA) | 0.00774
14 | CGTGGAACATGGACCGGTTTTCCCGGTAATCCGTATTTGAT (site CGTGGAACTAC) | 0
15 | CGTGGAACATGGACCGGTTTTCCCGGTAATCCGTATTTGAT (site CGTGGAACTAG) | 0
16 | CGTGGAACATGGACCGGTTTTCCCGGTAATCCGTATTTGAT (site CGTGGAACTAT) | 2.14
17 | CGTGGAACATGGACCGGTTTTCCCGGTAATCCGTATTTGTG (site CGTGGAACTAA) | 0.0173
18 | CGTGGAACATGGACCGGTTTTCCCGGTAATCCGTATTTGTG (site CGTGGAACTCA) | 1.16
19 | CGTGGAACATGGACCGGTTTTCCCGGTAATCCGTATTTGTG (site CGTGGAACTGA) | 0
20 | CGTGGAACATGGACCGGTTTTCCCGGTAATCCGTATTTGTG (site CGTGGAACTTA) | 1.61
21 | CGTGGAACATGGACCGGTTTTCCCGGTAATCCGTATTTGTT (site AGTGGAACTAA) | 0.101
22 | CGTGGAACATGGACCGGTTTTCCCGGTAATCCGTATTTGTT (site CATGGAACTAA) | 0.0194
23 | CGTGGAACATGGACCGGTTTTCCCGGTAATCCGTATTTGTT (site CCTGGAACTAA) | 0.0032
24 | CGTGGAACATGGACCGGTTTTCCCGGTAATCCGTATTTGTT (site CGAGGAACTAA) | 1.63
25 | CGTGGAACATGGACCGGTTTTCCCGGTAATCCGTATTTGTT (site CGCGGAACTAA) | 0.501
26 | CGTGGAACATGGACCGGTTTTCCCGGTAATCCGTATTTGTT (site CGGGGAACTAA) | 0.00685

Row | Sequence | recombinant UMI read abundance (log10)
27 | CGTGGAACATGGACCGGTTTTCCCGGTAATCCGTATTTGTT (site CGTAGAACTAA) | 1.15
28 | CGTGGAACATGGACCGGTTTTCCCGGTAATCCGTATTTGTT (site CGTCGAACTAA) | 0.0185
29 | CGTGGAACATGGACCGGTTTTCCCGGTAATCCGTATTTGTT (site CGTGAAACTAA) | 0
30 | CGTGGAACATGGACCGGTTTTCCCGGTAATCCGTATTTGTT (site CGTGCAACTAA) | 0.00967
31 | CGTGGAACATGGACCGGTTTTCCCGGTAATCCGTATTTGTT (site CGTGGAACTAA) | 1.72
32 | CGTGGAACATGGACCGGTTTTCCCGGTAATCCGTATTTGTT (site CGTGGAACTAC) | 0.303
33 | CGTGGAACATGGACCGGTTTTCCCGGTAATCCGTATTTGTT (site CGTGGAACTAG) | 0.951
34 | CGTGGAACATGGACCGGTTTTCCCGGTAATCCGTATTTGTT (site CGTGGAACTAT) | 0.403
35 | CGTGGAACATGGACCGGTTTTCCCGGTAATCCGTATTTGTT (site CGTGGAACTCA) | 0.251
36 | CGTGGAACATGGACCGGTTTTCCCGGTAATCCGTATTTGTT (site CGTGGAACTGA) | 0.938
37 | CGTGGAACATGGACCGGTTTTCCCGGTAATCCGTATTTGTT (site CGTGGAACTTA) | 0.841
38 | CGTGGAACATGGACCGGTTTTCCCGGTAATCCGTATTTGTT (site CGTGGACCTAA) | 0.071
39 | CGTGGAACATGGACCGGTTTTCCCGGTAATCCGTATTTGTT (site CGTGGAGCTAA) | 0.00766
40 | CGTGGAACATGGACCGGTTTTCCCGGTAATCCGTATTTGTT (site CGTGGATCTAA) | 0.524
41 | CGTGGAACATGGACCGGTTTTCCCGGTAATCCGTATTTGTT (site CGTGGCACTAA) | 0.0304
42 | CGTGGAACATGGACCGGTTTTCCCGGTAATCCGTATTTGTT (site CGTGGGACTAA) | 0.0232
43 | CGTGGAACATGGACCGGTTTTCCCGGTAATCCGTATTTGTT (site CGTGGTACTAA) | 0
44 | CGTGGAACATGGACCGGTTTTCCCGGTAATCCGTATTTGTT (site CGTGTAACTAA) | 0
45 | CGTGGAACATGGACCGGTTTTCCCGGTAATCCGTATTTGTT (site CGTTGAACTAA) | 0
46 | CGTGGAACATGGACCGGTTTTCCCGGTAATCCGTATTTGTT (site CTTGGAACTAA) | 0.0161
47 | CGTGGAACATGGACCGGTTTTCCCGGTAATCCGTATTTGTT (site GGTGGAACTAA) | 0.0165
48 | CGTGGAACATGGACCGGTTTTCCCGGTAATCCGTATTTGTT (site TGTGGAACTAA) | 0.0144
49 | CGTGGACCATGGACCGGTTTTCCCGGTAATCCGTATTTGGG (site CGAGGACCTCC) | 0.0168
50 | CGTGGACCATGGACCGGTTTTCCCGGTAATCCGTATTTGGG (site CGCGGACCTCC) | 0.00423
51 | CGTGGACCATGGACCGGTTTTCCCGGTAATCCGTATTTGGG (site CGGGGACCTCC) | 0.028
52 | CGTGGACCATGGACCGGTTTTCCCGGTAATCCGTATTTGGG (site CGTGGACCTCC) | 0.0154
